Data reported in PubChem BioAssay AID1845211 (Molecular Pharmacology Branch, DTP, NCI, 2023).

Tested on: NCI-H322M multicellular tumor spheroids, viability (% test/control)
Test: Anticancer human tumor NCI-H322M cell line growth inhibition;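 for viability, T/C: spheroids exposed to compound for seven days before readout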
Conditions: for IC50: curve of first compound; for viability, T/C: stronger effect = lower value
Excerpt: Multicellular complex tumor spheroid response to DNA repair inhibitors in combination with DNA-damaging drugs
This study explores the anticancer activities of DNA-damaging drugs and inhibitors of DNA damage repair, both as single agents and in combinations. Complex tumor spheroids comprised of malignant cells, endothelial cells and mesenchymal stem cells served as an in vitro model for human solid tumors. This model system incorporates physiologically relevant features and patient-derived or established malignant cell lines with clinically relevant genetic alterations from many tumor types. Twenty-six patient-derived or established malignant cell lines were evaluated representing sarcoma, melanoma, small cell lung cancer (SCLC), non-small cell lung cancer (NSCLC), as well as bladder, ovarian and pancreatic cancers. The concentration ranges selected for each drug and investigational agent were based upon clinically achievable concentrations if the clinical Cmax of the agent was known.
Compounds. The drugs and compounds olaparib (NSC753686), talazoparib (NSC767125), berzosertib (NSC777718), elimusertib (NSC800525), nedisertib (NSC802822), VX-984 (NSC792969), AZD-1390 (NSC803789), temozolomide (NSC362856), topotecan (NSC609699), trabectedin (NSC813783), staurosporine (NSC755774), and gemcitabine (NSC613327) were obtained from the National Cancer Institute (NCI) Developmental Therapeutics Program Chemical Repository. The FDA-approved anticancer drug set is available from the Developmental Therapeutics Program at https://dtp.cancer.gov/organization/dscb/obtaining/available_plates.htm. […] The stock solutions were prepared in dimethyl sulfoxide (DMSO, Sigma-Aldrich, St. Louis, MO, cat. D2650) at 400-fold the tested concentration and stored at -70 degrees C. Prior to their use, the stock solutions were diluted in fresh medium and the final DMSO concentration in the assay was 0.25% (v/v). All drugs and investigational agents were tested over a range starting from a high concentration at or near the clinical Cmax and decreasing in half-log increments. If the clinical Cmax for an agent had not been determined, the highest concentration tested was 10 microM.
Cell Lines. The patient-derived cancer cell (PDC) lines: 156681-154-R-J1-PDC, 283228-195-R-J1-PDC, 287954-098-R-J1-PDC, 292921-168-R-J2-PDC, 349418-098-R-PDC, 425362-245-T-J1-PDC, 556581-035-R-J1-PDC, and BL0293-F563-PDC were received from the NCI Patient-Derived Models Repository (PDMR, https://pdmr.cancer.gov). The established cell lines HS-SY-2 (RRID:CVCL_8719), MPNST, and SYO-1 (RRID:CVCL_7146) were obtained from the Sloan Kettering Institute. The alveolar soft parts sarcoma cell line ASPS-1 (RRID:CVCL_S738) was established at the NCI and grown from internal seed stocks. The following established cell lines were purchased from the American Type Culture Collection (ATCC, Manassas, VA): G-401 (ATCC, cat. CRL-1441, RRID:CVCL_0270), SW982 (ATCC, cat. HTB-93, RRID:CVCL_1734), VA-ES-BJ (ATCC, cat. CRL-2138, RRID:CVCL_1785), NCI-H719 (ATCC, cat. CRL-5837, RRID:CVCL_1582), NCI-H196 (ATCC, cat. CRL-5823, RRID:CVCL_1509), NCI-H841 (ATCC, cat. CRL-5845, RRID:CVCL_1595), NCI-H1618 (ATCC, cat. CRL-5879, RRID:CVCL_1480), NCI-H1876 (ATCC, cat. CRL-5902, RRID:CVCL_1503), DMS 114 (ATCC, cat. CRL-2066; RRID:CVCL_1174), NCI-H211 (ATCC, cat. CRL-5824; RRID:CVCL_1529), and SW 1271 (ATCC, cat. CRL-2177, RRID:CVCL_1716). The small cell lung cancer cell line COR-L88 was purchased from Sigma-Aldrich (cat. 92031917-1VL, RRID:CVCL_1141). The non-small cell lung cancer cell lines NCI-H226 (RRID:CVCL_1544) and NCI-H322M (RRID:CVCL_1557) were established at the NCI and grown from internal seed stocks. Pooled donor human umbilical vein endothelial cells (HUVEC, Lonza, cat. CC-2519) and human mesenchymal stem cells (hMSC, Lonza, cat. PT-2501) were purchased from Lonza (Walkersville, MD).
Cell Culture. All cells were maintained in an incubator at 37 degrees C and 5% CO2 with 95% humidity. […]

## CNCc1ccc(-c2cc(-c3nc(-c4ccc(S(=O)(=O)C(C)C)cc4)cnc3N)on2)cc1 + Cn1nnc2c(C(N)=O)ncn2c1=O
Second compound 1 µM
  IC50: > 3 µM
Second compound 3.16 µM
  IC50: > 3 µM
Second compound 10 µM
  IC50: > 3 µM
Second compound 31.6 µM
  IC50: > 3 µM
Second compound 100 µM
  IC50: > 3 µM
Second compound 1 µM, first compound 0.00949 µM
  viability, T/C: 100%
Second compound 1 µM, first compound 0.03 µM
  viability, T/C: 104%
Second compound 1 µM, first compound 0.0949 µM
  viability, T/C: 82.1%
Second compound 1 µM, first compound 0.3 µM
  viability, T/C: 84.1%
Second compound 1 µM, first compound 0.949 µM
  viability, T/C: 75.7%
Second compound 1 µM, first compound 3 µM
  viability, T/C: 83.3%
Second compound 3.16 µM, first compound 0.00949 µM
  viability, T/C: 79.5%
Second compound 3.16 µM, first compound 0.03 µM
  viability, T/C: 76.2%
Second compound 3.16 µM, first compound 0.0949 µM
  viability, T/C: 75%
Second compound 3.16 µM, first compound 0.3 µM
  viability, T/C: 86.9%
Second compound 3.16 µM, first compound 0.949 µM
  viability, T/C: 81.4%
Second compound 3.16 µM, first compound 3 µM
  viability, T/C: 87.6%
Second compound 10 µM, first compound 0.00949 µM
  viability, T/C: 78.7%
Second compound 10 µM, first compound 0.03 µM
  viability, T/C: 89%
Second compound 10 µM, first compound 0.0949 µM
  viability, T/C: 77.6%
Second compound 10 µM, first compound 0.3 µM
  viability, T/C: 99.2%
Second compound 10 µM, first compound 0.949 µM
  viability, T/C: 81.1%
Second compound 10 µM, first compound 3 µM
  viability, T/C: 75.4%
Second compound 31.6 µM, first compound 0.00949 µM
  viability, T/C: 110%
Second compound 31.6 µM, first compound 0.03 µM
  viability, T/C: 76.2%
Second compound 31.6 µM, first compound 0.0949 µM
  viability, T/C: 78.3%
Second compound 31.6 µM, first compound 0.3 µM
  viability, T/C: 76.3%
Second compound 31.6 µM, first compound 0.949 µM
  viability, T/C: 68.4%
Second compound 31.6 µM, first compound 3 µM
  viability, T/C: 66%
Second compound 100 µM, first compound 0.00949 µM
  viability, T/C: 95.6%
Second compound 100 µM, first compound 0.03 µM
  viability, T/C: 87%
Second compound 100 µM, first compound 0.0949 µM
  viability, T/C: 81.7%
Second compound 100 µM, first compound 0.3 µM
  viability, T/C: 71%
Second compound 100 µM, first compound 0.949 µM
  viability, T/C: 70.1%
Second compound 100 µM, first compound 3 µM
  viability, T/C: 58.3%
